These compounds were tested against T1, PD-1/PD-L1 protein/protein interaction (recombinant human PD-L1 protein (19-238), recombinant human PD-1 protein (25-167)) (Homo sapiens, UniProt Q9NZQ7) (assay: PD-1/PD-L1 Homogeneous Time-Resolved Fluorescence (HTRF) Binding Assay). Settings: 25° C., PBS buffer (pH 7.4), 40 minutes preincubation with inhibitors.
T1 construct: Recombinant human PD-L1 protein (19-238) with a His-tag at the C-terminus; purchased AcroBiosystems PD1-H5229 (PD-L1-His); PD1-H5257 (PD-1-Fc)
T1 sequence (Q9NZQ7 19-238): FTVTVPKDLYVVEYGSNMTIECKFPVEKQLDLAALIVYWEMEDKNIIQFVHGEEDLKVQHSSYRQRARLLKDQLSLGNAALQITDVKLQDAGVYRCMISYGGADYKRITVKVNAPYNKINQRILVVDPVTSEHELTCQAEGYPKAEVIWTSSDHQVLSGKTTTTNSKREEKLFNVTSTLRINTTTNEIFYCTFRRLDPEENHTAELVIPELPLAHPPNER
In short: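 HTRF read-out (665/620 nm) after 60 min at 25 °C with 1 nM Eu anti-human IgG and 20 nM APC anti-His. Beforehand, inhibitors were preincubated 40 min with Fc-PD-1 (25-167, […] as listed) and His-PD-L1 (19-238, 10 nM) in PBS pH 7.4 with Tween-20, BSA, 1% DMSO; IC50 from log-concentration curve.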

**Q.** How did the IC50 turn out when `Cc1c(Nc2nccc3cc(CN4CC[C@@H](O)C4)cnc23)cccc1-c1cccc(Nc2nccc3cc(CN4CC(C(=O)O)C4)cnc23)c1Cl` [Example 80, (R)-1-((8-((2-chloro-3′-((3-((3-hydroxypyrrolidin-1-yl)methyl)-1,7-naphthyridin-8-yl)amino)-2′-methyl-[1,1′-biphenyl]-3-yl)amino)-1,7-naphthyridin-3-yl)methyl)azetidine-3-carboxylic acid] was run?
**A.** ≤ 10 nM

**Q.** With `Cc1c(Nc2nccc3cc(CN4CC[C@@H](O)C4)cnc23)cccc1-c1cccc(Nc2nccc3cc(CNCCC(=O)O)cnc23)c1Cl` [Example 81, (R)-3-(((8-((2-chloro-3′-((3-((3-hydroxypyrrolidin-1-yl)methyl)-1,7-naphthyridin-8-yl)amino)-2′-methyl-[1,1′-biphenyl]-3-yl)amino)-1,7-naphthyridin-3-yl)methyl)amino)propanoic acid] as the compound, how does the IC50 read?
**A.** ≤ 10 nM

**Q.** How did the IC50 turn out when `O=C(O)[C@@H]1CCN(Cc2cnc3c(Nc4cccc(-c5cccc(Nc6nccc7cc(CN8CC[C@H](O)C8)cnc67)c5Cl)c4Cl)nccc3c2)C1` [Example 82, (R)-1-((8-((2,2′-dichloro-3′-((3-(((S)-3-hydroxypyrrolidin-1-yl)methyl)-1,7-naphthyridin-8-yl)amino)-[1,1′-biphenyl]-3-yl)amino)-1,7-naphthyridin-3-yl)methyl)pyrrolidine-3-carboxylic acid] was run?
**A.** ≤ 10 nM

**Q.** Which IC50 does the source give for `O=C(O)[C@H]1CCN(Cc2cnc3c(Nc4cccc(-c5cccc(Nc6nccc7cc(CN8CC[C@H](O)C8)cnc67)c5Cl)c4Cl)nccc3c2)C1` [Example 83, (S)-1-((8-((2,2′-dichloro-3′-((3-(((S)-3-hydroxypyrrolidin-1-yl)methyl)-1,7-naphthyridin-8-yl)amino)-[1,1′-biphenyl]-3-yl)amino)-1,7-naphthyridin-3-yl)methyl)pyrrolidine-3-carboxylic acid] here?
**A.** ≤ 10 nM

**Q.** How did the IC50 turn out when `Cc1c(Nc2nccc3cc(CN4CC[C@@H](C(=O)O)C4)cnc23)cccc1-c1cccc(-c2nc3c(o2)CN(C(=O)CN(C)C)C3)c1C` [Example 84, (R)-1-((8-((3′-(5-(dimethylglycyl)-5,6-dihydro-4H-pyrrolo[3,4-d]oxazol-2-yl)-2,2′-dimethyl-[1,1′-biphenyl]-3-yl)amino)-1,7-naphthyridin-3-yl)methyl)pyrrolidine-3-carboxylic acid] was run?
**A.** ≤ 10 nM

**Q.** Which IC50 does the source give for `Cc1c(Nc2nccc3cc(CN4CC[C@@H](C(=O)O)C4)cnc23)cccc1-c1cccc(-c2nc3c(s2)CN(C(=O)CN(C)C)C3)c1C` [Example 85, (R)-1-((8-((3′-(5-(dimethylglycyl)-5,6-dihydro-4H-pyrrolo[3,4-d]thiazol-2-yl)-2,2′-dimethyl-[1,1′-biphenyl]-3-yl)amino)-1,7-naphthyridin-3-yl)methyl)pyrrolidine-3-carboxylic acid] here?
**A.** ≤ 10 nM

**Q.** For `Cc1c(Nc2nccc3cc(CN4CC[C@@H](O)C4)cnc23)cccc1-c1cccc(-c2nc3c(s2)CN(C(=O)CN2CC[C@@H](O)C2)C3)c1C` [Example 86, 2-((R)-3-hydroxypyrrolidin-1-yl)-1-(2-(3′-((3-(((R)-3-hydroxypyrrolidin-1-yl)methyl)-1,7-naphthyridin-8-yl)amino)-2,2′-dimethyl-[1,1′-biphenyl]-3-yl)-4,6-dihydro-5H-pyrrolo[3,4-d]thiazol-5-yl)ethan-1-one], which IC50 is on record?
**A.** ≤ 10 nM

**Q.** For `Cc1c(Nc2nccc3cc(CN4CC[C@@](C)(C(=O)O)C4)cnc23)cccc1-c1cccc(-c2nc3c(s2)CN(C(=O)CN(C)C)C3)c1C` [Example 87, (R)-1-((8-((3′-(5-(dimethylglycyl)-5,6-dihydro-4H-pyrrolo[3,4-d]thiazol-2-yl)-2,2′-dimethyl-[1,1′-biphenyl]-3-yl)amino)-1,7-naphthyridin-3-yl)methyl)-3-methylpyrrolidine-3-carboxylic acid], which IC50 is on record?
**A.** ≤ 10 nM

**Q.** How did the IC50 turn out when `Cc1c(Nc2nccc3cc(CN4CC(C(=O)O)C4)cnc23)cccc1-c1cccc(-c2nc3c(s2)CN(C(=O)CN(C)C)C3)c1C` [Example 88, 1-((8-((3′-(5-(dimethylglycyl)-5,6-dihydro-4H-pyrrolo[3,4-d]thiazol-2-yl)-2,2′-dimethyl-[1,1′-biphenyl]-3-yl)amino)-1,7-naphthyridin-3-yl)methyl)azetidine-3-carboxylic acid] was run?
**A.** ≤ 10 nM

**Q.** `Cc1c(-c2nc3c(s2)CN(C(=O)CN(C)C)C3)cccc1-c1cccc(Nc2nccc3cc(CN4CC[C@@H](C(=O)O)C4)cnc23)c1Cl` [Example 89, (R)-1-((8-((2-chloro-3′-(5-(dimethylglycyl)-5,6-dihydro-4H-pyrrolo[3,4-d]thiazol-2-yl)-2′-methyl-[1,1′-biphenyl]-3-yl)amino)-1,7-naphthyridin-3-yl)methyl)pyrrolidine-3-carboxylic acid] was tested. Which IC50 did it give?
**A.** ≤ 10 nM

**Q.** For `CCN(C)CC(=O)N1Cc2nc(-c3cccc(-c4cccc(Nc5nccc6cc(CN7CC[C@@H](C(=O)O)C7)cnc56)c4Cl)c3C)sc2C1` [Example 90, (R)-1-((8-((2-chloro-3′-(5-(N-ethyl-N-methylglycyl)-5,6-dihydro-4H-pyrrolo[3,4-d]thiazol-2-yl)-2′-methyl-[1,1′-biphenyl]-3-yl)amino)-1,7-naphthyridin-3-yl)methyl)pyrrolidine-3-carboxylic acid], which IC50 is on record?
**A.** ≤ 10 nM

**Q.** `Cc1c(-c2nc3c(s2)CN(C(=O)CN(C)C)C3)cccc1-c1cccc(Nc2nccc3cc(CN4CC[C@H](CC(=O)O)C4)cnc23)c1Cl` [Example 91, (R)-2-(1-((8-((2-chloro-3′-(5-(dimethylglycyl)-5,6-dihydro-4H-pyrrolo[3,4-d]thiazol-2-yl)-2′-methyl-[1,1′-biphenyl]-3-yl)amino)-1,7-naphthyridin-3-yl)methyl)pyrrolidin-3-yl)acetic acid] was tested. Which IC50 did it give?
**A.** ≤ 10 nM

**Q.** Which IC50 does the source give for `Cc1c(-c2nc3c(s2)CN(C(=O)CN(C)C)C3)cccc1-c1cccc(Nc2nccc3cc(CN4CC5CC4CC5C(=O)O)cnc23)c1Cl` (stereo not shown) [Example 92, 2-((8-((2-chloro-3′-(5-(dimethylglycyl)-5,6-dihydro-4H-pyrrolo[3,4-d]thiazol-2-yl)-2′-methyl-[1,1′-biphenyl]-3-yl)amino)-1,7-naphthyridin-3-yl)methyl)-2-azabicyclo[2.2.1]heptane-5-carboxylic acid] here?
**A.** ≤ 10 nM

**Q.** How did the IC50 turn out when `CCN(C)CC(=O)N1Cc2nc(-c3cccc(-c4cccc(Nc5nccc6cc(CN7CC[C@H](CC(=O)O)C7)cnc56)c4Cl)c3C)sc2C1` [Example 93, (R)-2-(1-((8-(2-chloro-3′-(5-(2-(ethyl(methyl)amino)acetyl)-5,6-dihydro-4H-pyrrolo[3,4-d]thiazol-2-yl)-2′-methylbiphenyl-3-ylamino)-1,7-naphthyridin-3-yl)methyl)pyrrolidin-3-yl)acetic acid] was run?
**A.** 10 to 100 nM

**Q.** How did the IC50 turn out when `CCN(C)CC(=O)N1Cc2nc(-c3cccc(-c4cccc(Nc5nccc6cc(CN7CC8CC7CC8C(=O)O)cnc56)c4Cl)c3C)sc2C1` (stereo not shown) [Example 94, 2-((8-(2-chloro-3′-(5-(2-(ethyl(methyl)amino)acetyl)-5,6-dihydro-4H-pyrrolo[3,4-d]thiazol-2-yl)-2′-methylbiphenyl-3-ylamino)-1,7-naphthyridin-3-yl)methyl)-2-azabicyclo[2.2.1]heptane-5-carboxylic acid] was run?
**A.** ≤ 10 nM

**Q.** With `Cc1c(-c2nc3c(s2)CN(C(=O)CN2CC[C@@H](O)C2)C3)cccc1-c1cccc(Nc2nccc3cc(CN4CC[C@@H](C(=O)O)C4)cnc23)c1Cl` [Example 95, (R)-1-((8-((2-chloro-3′-(5-(2-((R)-3-hydroxypyrrolidin-1-yl)acetyl)-5,6-dihydro-4H-pyrrolo[3,4-d]thiazol-2-yl)-2′-methyl-[1,1′-biphenyl]-3-yl)amino)-1,7-naphthyridin-3-yl)methyl)pyrrolidine-3-carboxylic acid] as the compound, how does the IC50 read?
**A.** ≤ 10 nM

Source: US12466822B2, “Heterocyclic compounds as immunomodulators” (Incyte Corporation, priority 2016, dated 2025)
